In patent US11786606B2, “Site-specific quantitation of drug conjugations” (Regeneron Pharmaceuticals, Inc., priority 2019, dated 2023):

Biological target: T1, papain (Carica papaya, UniProt P00784)
T1 sequence (P00784 134-345): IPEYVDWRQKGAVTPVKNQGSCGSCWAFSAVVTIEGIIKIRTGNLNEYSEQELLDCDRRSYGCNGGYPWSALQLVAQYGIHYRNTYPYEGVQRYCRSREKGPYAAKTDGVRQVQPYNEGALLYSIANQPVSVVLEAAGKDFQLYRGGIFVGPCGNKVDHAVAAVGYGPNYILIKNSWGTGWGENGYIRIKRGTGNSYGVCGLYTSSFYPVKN
Experiment: Papain digestion to remove drug payloads from ADC linkers, monitored by LC-MS peak areas of surrogate peptides
Format: biochemical
Conditions: papain to substrate ratio 1:200; peak areas of peptides containing cleaved linker
Description: According to the concentration of ADC samples, transfer 25 μg of each ADC sample to a new microcentrifuge tube and add water to a total volume of 10 μL. Dilute 20 uL of papain suspension (10 mg/mL) with 180 uL of papain digestion buffer, incubate at 37° C. for 30 min. Dilute 30 uL of papain (nominal concentration of 1 mg/mL) with 120 uL of activation buffer to a nominal concentration of 0.2 mg/mL. Measure papain concentration with UV (ultra-violate) measurement at 280 nm and 320 nm using papain activation buffer as the blank buffer. Dilute activated papain to a final concentration of 0.1 mg/mL with papain activation buffer. Add 1.25 uL of 0.1 mg/mL papain solution (enzyme:substrate ratio is 1:200) to intact ADC, incubate at 37° C. for 1 h. Add 0.5 μL of 0.1 M TCEP-HCl to each sample. Vortex the samples for 3 seconds, and then spin down the samples using a Minicentrifuge for 3 seconds. Incubate samples at 95° C. for 20 minutes with shaking at 800 rpm in a thermomixer. Following incubation, cool down the samples to room temperature for 5 minutes. Spin down the condensation using a Minicentrifuge for 3 seconds. Add 6 μL of 8 M urea in 1 M Tris-HCl, pH 7.5 to each sample. […]
Papain was used to remove the payloads of MAB1-LK1 ADCs. […] Two tryptic peptides, e.g., SCDK (serine-cysteine-aspartic acid-lysine) (SEQ ID NO: 7) and GEC (glycine-glutamic acid-cysteine), were analyzed using LC-MS. […]

mal-amido-Val-Cit-PABA [LK3]
incubation time for completion of papain digestion to remove drug payloads (cleaved linker monitored): one

mal-amido-PEG8-VA-PABA [LK1]
incubation time for completion of papain digestion to remove drug payloads (cleaved linker monitored): one
